Values of other authors, collected in patent US20060241549A1, “Apparatus and method for precise ozone/oxygen delivery applied to the treatment of dermatological conditions, including gas gangrene, and related disorders” (priority 2005, published 2006).

Conditions: as a gas, at room temperature

O=[O+][O-] [ozone, Ozone]
half-life: approximately 50 minutes
